{"source": "patent US20040106653A1", "about": "“Aminoalcohol derivatives” (FUJISAWA PHARMACEUTICAL CO., LTD., priority 2002, published 2004)", "test_system": "carbachol-induced increase in intravesical pressure (IVP) in anesthetized dog", "experiment": "Effect on the increase in intravesical pressure induced by carbachol in anesthetized dog", "type": "in vivo", "details": "0.032 mg/kg, intravenous; female Beagle dogs under halothane anesthesia; carbachol 1.8 μg/kg", "procedure": "Effect on the increase in intravesical pressure induced by carbachol in anesthetized dog Test Method Female Beagle dogs weighing 8.0-15.0 kg were fasted for 24 hours and maintained under halothane anesthesia. A 12F Foley catheter was lubricated with water soluble jelly, inserted into the urethral orifice and advanced approximately 10 cm until the balloon tip was placed well inside the bladder. The balloon was then inflated with 5 ml of room air and catheter slowly withdrawn just part the first resistance that is felt at the bladder neck. Urine was completely drained out through the catheter, and 30 ml of biological saline was infused. The catheter was connected to pressure transducer, and intravesical pressure was continuously recorded. Intravenous administration of test compound (I) inhibited carbachol (1.8 μg/kg)-induced increase in intravesical pressure (IVP)."}
{"compound": "C[C@H](Cc1ccc(S(=O)(=O)c2ccc(C(=O)N(C)CC(=O)O)cc2)cc1)NC[C@H](O)c1cccc(Cl)c1.Cl", "note": "[Test Compound (1), [[4-[[4-[(2R)-2-[[(2R)-2-(3-Chlorophenyl)-2-hydroxyethyl]amino]propyl]phenyl]sulfonyl]benzoyl]-(methyl)amino]acetic acid hydrochloride]", "values": [{"measurement": "% inhibition of carbachol-induced increase in IVP", "value": 80.8, "unit": "%"}]}
